Measurements as given in PubChem BioAssay (NCI).
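Compound exposure: 48 hours, 5 concentrations, 96-well plates. GI50 = concentration required for 50% inhibition of growth. TGI: total growth inhibition.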

Experiments:
Assay in all cases: growth of human tumour cells (NCI), 48 h
[1] = system: A498 renal
[2] = system: HCC-2998 colon
[3] = system: HCT-116 colon
[4] = system: KM12 colon
[5] = system: NCI-H522 lung
[6] = system: RXF 393 renal
[7] = system: SF-268 CNS
[8] = system: SNB-75 CNS
[9] = system: SW-620 colon
[10] = system: UACC-257 melanoma

Row | SMILES | GI50 [1] [µM] | TGI [1] [µM] | GI50 [2] [µM] | TGI [2] [µM] | GI50 [3] [µM] | TGI [3] [µM] | GI50 [4] [µM] | TGI [4] [µM] | GI50 [5] [µM] | TGI [5] [µM] | GI50 [6] [µM] | TGI [6] [µM] | GI50 [7] [µM] | TGI [7] [µM] | GI50 [8] [µM] | TGI [8] [µM] | GI50 [9] [µM] | TGI [9] [µM] | GI50 [10] [µM] | TGI [10] [µM]
1 | COc1cc(-c2cn(-c3ccc(Cl)c(Cl)c3)c(=O)n2C(C)=O)cc(OC)c1OC | 16.6 | 32.1 | 14.9 | 29.8 | 13.7 | 27.9 | 12.3 | 28.6 | 13.3 | 30 | 3.34 | 14.9 | 6.92 | 30 | 9.64 | 33.8 | 12.9 | 29.8 | 7.51 | 23.2
2 | O=C(N/N=C(/CCN1CCCC1)CC(c1ccccc1)c1c(O)c2ccccc2oc1=O)c1ccncc1 (centres undefined) |  | > 100 |  | > 100 |  | > 100 |  | > 100 |  | > 100 |  | > 100 |  | > 100 |  | > 100 |  | > 100 |  | > 100
3 | Fc1cc2[nH]ncc2c2c3c(c(-c4cn[nH]c4C(F)(F)F)nc12)C1CCC3C1 (centres undefined) | 0.591 | 1.25 | 1.38 | 5.57 | 0.642 | 5.55 | 0.656 | 6.3 | 0.906 | 3.38 | 0.345 | 1.12 | 1.16 | 4.64 | 0.945 | 2.93 | 0.982 | 5.13 | 1.31 | 4.51
4 | COc1ccc(-c2ccc(-c3ccc(C(=N)N)cn3)o2)cc1 | 12.8 | 26.3 | 2.45 | 5.71 | 3.26 | 12.9 | 4.41 | 15.5 | 6.8 | 20.7 | 7.01 | 20 | 11.2 | 25.3 | 10.5 | 22.5 | 4.05 | 16 | 2.18 | 4.69
5 | CCn1c(-c2nonc2N)nc2c(C#CC(C)(C)O)nc(OCCNC)cc21 | 1.35 | 9.43 | 5.34 | > 25 | 7.14 | > 21.6 | 5.82 | 23.3 | 4.98 | 9.72 | 4.13 | 11 | 7.94 | > 25 | 7.78 | > 25 | 6.68 | > 25 | 7.96 | 24.7
6 | Nc1ccc(C(=O)CC(N)C(=O)O)cc1O (centres undefined) |  | > 100 |  | > 100 |  | > 100 |  | > 100 |  | > 100 |  | > 100 |  | > 100 |  | > 100 |  | > 100 |  | > 100
7 | COC1C2C=CC(C2)[C@H]1[N+](=O)[O-] (some centres undefined) |  | > 100 |  | > 100 |  | > 100 |  | > 100 |  | > 100 |  | > 100 |  | > 100 |  | > 100 |  | > 100 |  | > 100
8 | Cc1ccc2nc(-c3ccc(N(C)C)c(Br)c3)cn2c1 | > 100 | > 100 | > 100 | > 100 | 7.13 | > 100 | 54.1 | > 100 | > 100 | > 100 | > 100 | > 100 | 8.09 | > 100 | 31.3 | > 100 | 42.3 | > 100 | > 100 | > 100
9 | CCOc1cccc(/C=N/NC(=O)C(=O)Nc2cccc(C(F)(F)F)c2)c1O | 8.85 | 76.2 | 3.28 | > 100 | 1.02 | > 100 | 3 | > 100 | 2.29 | > 100 | 4.07 | 55.1 | 1.24 | 97 | 5.38 | 57.8 | 3.09 | > 100 | 2.57 | 25
10 | Cc1sc2nc3c4ccccc4c(NCCCN(C)C)nn3c(=O)c2c1C | 4.49 | 20.2 | 7.88 | 20.7 | 4.03 | 12.7 | 4.84 | 17.7 | 12.4 | 28.8 | 5.2 | 19.8 | 9.66 | 24.1 | 3.46 | 16.4 | 1.67 | 4.55 | 2.22 | 4.79
11 | COc1cc(/C=C2\C(=O)Nc3ccc(N(C)C)cc32)cc(OC)c1OC | 4.67 | > 100 | 8.46 | 46.4 | 2.94 | > 43.9 | 1.69 | 13.2 | 1.47 | 5.75 | 0.24 | 1.28 | 3.92 | 33.1 | 1.74 | 6.33 | 2.7 | > 100 | 6.73 | > 100
12 | CC(CCC(=O)O)C(=O)O (centres undefined) |  | > 100 |  | > 100 |  | > 100 |  | > 100 |  | > 100 |  | > 100 |  | > 100 |  | > 100 |  | > 100 |  | > 100
13 | Cn1c2c(c3ccc(Cl)c(Cl)c31)C(C#N)C1(CCNCC1)NC2=O (centres undefined) | 1.24 | 2.95 | 1.31 | 2.69 | 1.39 | 2.92 | 1.6 | 3.03 | 1.55 | 3.42 | 1.52 | 5.79 | 1.77 | 4.89 | 1.14 | 4.72 | 1.65 | 3.26 | 1.75 | 3.69
14 | CN(C)CC1CCC/C1=N\O (centres undefined) |  | > 100 |  | > 100 |  | > 100 |  |  |  | > 100 |  | > 100 |  | > 100 |  | > 100 |  | > 100 |  | > 100
